Results: US20250098720A1, “SWEETENER COMPOSITIONS” (Firmenich SA, priority 2022, published 2025)

What was measured:
[1] = Sensory experiment, trained panel, sweet-sour base (inverted sugar 7% and citric acid 0.15%); assay type: in vivo, human; conditions: 10 ppm compound in sweet-sour base of inverted sugar 7% and citric acid 0.15%
Method: (§1) Methodology: compounds 101 and 108 were evaluated as sweet modifiers in a sweet (water solution containing sucrose at 4%) or a sweet-sour base (mixture of inverted sugar and citric acid at 7% and 0.15%) at 10 ppm. Twenty trained panelists were asked to compare the intensity difference between reference and compound 101 or compound 108. The taste properties (such as sweet, sour) were evaluated on a scale of −5 to 5 (−5 denoted strong masking effect and 5 denoted strong enhancing effect, 0 being the intensity of reference.

[2] = Sensory experiment, trained panel, sweet base (water solution containing sucrose at 4%); assay type: in vivo, human; conditions: 10 ppm compound in 4% sucrose base; twenty trained panelists
Method: as §1

[3] = pH value of the sweet-sour base with compound; assay type: physicochemical; conditions: 10 ppm compound in sweet-sour base of inverted sugar and citric acid

| Structure (SMILES) | sour intensity versus reference (scale -5 to 5) [1] | sweet intensity versus reference (scale -5 to 5) [1] | sweet intensity versus reference (scale -5 to 5) [2] | pH value of the base [3] |
| --- | --- | --- | --- | --- |
| COc1cc(O)c(C(=O)CCc2ccc(O)cc2)c(O)c1C [compound 101] | significantly increase | significantly increase | can increase sweet intensity | without changing the pH value |
| O=C1CC(c2ccc(O)cc2)c2c(cc(O)c(C(=O)CCc3ccc(O)cc3)c2O)O1 (centres unmarked) [compound 108] | – | – | can increase sweet intensity | – |
